Values of other authors in patent publication US11904118B2, “Drug delivery medical device” (Micell Medtech Inc., priority 2010, dated 2024).

Target: FKBP12 (Homo sapiens, UniProt P62942)
Sequence (P62942 whole entry, species assumed): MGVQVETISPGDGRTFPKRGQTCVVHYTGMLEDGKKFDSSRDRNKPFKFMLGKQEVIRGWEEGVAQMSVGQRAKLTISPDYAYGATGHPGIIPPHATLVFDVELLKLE

Structure (SMILES)	FKBP12 binding	FKBP12 binding (nM)
CC[C@@H]1/C=C(\C)C[C@H](C)C[C@H](OC)[C@H]2O[C@@](O)(C(=O)C(=O)N3CCCC[C@H]3C(=O)O[C@H](/C(C)=C/[C@@H]3CC[C@H](Cl)[C@H](OC)C3)[C@H](C)[C@@H](O)CC1=O)[C@H](C)C[C@@H]2OC [Pimecrolimus]	–	about 1.2 nM
C=CC[C@@H]1/C=C(\C)C[C@H](C)C[C@H](OC)[C@H]2O[C@@](O)(C(=O)C(=O)N3CCCC[C@H]3C(=O)O[C@H](/C(C)=C/[C@@H]3CC[C@@H](O)[C@H](OC)C3)[C@H](C)[C@@H](O)CC1=O)[C@H](C)C[C@@H]2OC [Tacrolimus]	0.2 to 0.4 nM	–
CO[C@H]1C[C@@H]2CC[C@@H](C)[C@@](O)(O2)C(=O)C(=O)N2CCCC[C@H]2C(=O)O[C@H]([C@H](C)C[C@@H]2CC[C@@H](OC(=O)C(C)(CO)CO)[C@H](OC)C2)CC(=O)[C@H](C)/C=C(\C)[C@@H](O)[C@@H](OC)C(=O)[C@H](C)C[C@H](C)/C=C/C=C/C=C/1C [Temsirolimus, 42-[3-hydroxy-2-(hydroxymethyl)-2-methylpropanoate]rapamycin]	–	about the same as Sirolimus

Next, values leading:

FKBP12 binding	FKBP12 binding (nM)	Structure (SMILES)
1.8 to 2.6 nM	–	CO[C@H]1C[C@@H]2CC[C@@H](C)[C@@](O)(O2)C(=O)C(=O)N2CCCC[C@H]2C(=O)O[C@H]([C@H](C)C[C@@H]2CC[C@@H](OCCO)[C@H](OC)C2)CC(=O)[C@H](C)/C=C(\C)[C@@H](O)[C@@H](OC)C(=O)[C@H](C)C[C@H](C)/C=C/C=C/C=C/1C [Everolimus, 40-O-(2-Hydroxyethyl)rapamycin]
2.0 to 3.2 nM	–	CO[C@H]1C[C@@H]2CC[C@@H](C)[C@@](O)(O2)C(=O)C(=O)N2CCCC[C@H]2C(=O)O[C@H]([C@H](C)C[C@@H]2CC[C@H](n3cnnn3)[C@H](OC)C2)CC(=O)[C@H](C)/C=C(\C)[C@@H](O)[C@@H](OC)C(=O)[C@H](C)C[C@H](C)/C=C/C=C/C=C/1C [Zotarolimus]
